Source: patent US20230065799A1, “METHOD FOR ATTRIBUTING OLFACTORY TONALITIES TO OLFACTORY RECEPTOR ACTIVATION AND METHODS FOR IDENTIFYING COMPOUNDS HAVING THE ATTRIBUTED TONALITIES” (FIRMENICH SA, priority 2019, published 2023)
Like-named read-outs stand apart in the source and are kept apart here.

Experiments:
OR1N2 = target: T1, OR1N2 (Homo sapiens, UniProt Q8NGR9, T287M/V230G/W23R); assay: OR1N2 cell-based cAMP HTRF assay; conditions: read-out: OR1N2 % Efficacy
T1 construct: Lucy (cleavable signal peptide) (N); FLAG (N); Rho (first 20 aa of bovine rhodopsin) (N); expressed in transfected cells
T1 sequence (Q8NGR9 1-316 W23R/V230G/T287M): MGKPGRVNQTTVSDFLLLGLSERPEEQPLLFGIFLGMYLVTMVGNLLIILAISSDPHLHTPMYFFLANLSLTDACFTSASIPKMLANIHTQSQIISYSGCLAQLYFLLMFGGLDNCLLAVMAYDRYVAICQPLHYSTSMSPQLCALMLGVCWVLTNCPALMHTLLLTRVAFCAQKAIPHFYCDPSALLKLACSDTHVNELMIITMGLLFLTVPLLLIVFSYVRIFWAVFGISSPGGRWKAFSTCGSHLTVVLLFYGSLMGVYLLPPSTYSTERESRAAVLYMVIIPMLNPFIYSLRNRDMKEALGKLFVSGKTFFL

OR10J5 = target: T2, OR10J5 (Homo sapiens, UniProt Q8NHC4); assay: OR10J5 cell-based cAMP HTRF assay; conditions: for Emax: read-out: OR10J5 % Efficacy
T2 construct: Lucy (cleavable signal peptide) (N); FLAG (N); Rho (first 20 aa of bovine rhodopsin) (N); expressed in transfected cells
T2 sequence (Q8NHC4 1-309): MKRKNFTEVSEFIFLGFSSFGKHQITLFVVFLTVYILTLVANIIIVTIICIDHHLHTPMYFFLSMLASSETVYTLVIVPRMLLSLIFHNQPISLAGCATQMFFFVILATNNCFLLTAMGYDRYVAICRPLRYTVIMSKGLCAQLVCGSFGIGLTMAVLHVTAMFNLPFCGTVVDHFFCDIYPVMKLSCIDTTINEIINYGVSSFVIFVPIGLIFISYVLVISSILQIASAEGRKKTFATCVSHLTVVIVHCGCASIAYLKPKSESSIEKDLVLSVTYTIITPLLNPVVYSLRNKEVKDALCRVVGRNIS

OR5B12 = target: T3, OR5B12 (Homo sapiens, UniProt Q96R08); assay: OR5B12 cell-based cAMP HTRF assay; conditions: dose-response; 100% = full agonist
T3 construct: Lucy (cleavable signal peptide) (N); FLAG (N); Rho (first 20 aa of bovine rhodopsin) (N); expressed in transfected cells
T3 sequence (Q96R08 1-314): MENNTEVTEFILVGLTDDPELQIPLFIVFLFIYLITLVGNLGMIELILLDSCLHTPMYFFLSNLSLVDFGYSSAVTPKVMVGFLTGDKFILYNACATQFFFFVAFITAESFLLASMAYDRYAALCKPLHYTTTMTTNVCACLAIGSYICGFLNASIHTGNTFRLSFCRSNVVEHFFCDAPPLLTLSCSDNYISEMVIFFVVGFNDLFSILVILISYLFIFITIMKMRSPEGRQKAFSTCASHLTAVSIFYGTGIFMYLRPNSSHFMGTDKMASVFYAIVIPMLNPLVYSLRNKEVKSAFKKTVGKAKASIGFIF

OR5AN1 = target: T4, OR5AN1 (Homo sapiens, UniProt Q8NGI8); assay: OR5AN1 cell-based cAMP HTRF assay; conditions: for Emax: read-out: OR5AN1 % Efficacy
T4 construct: Lucy (cleavable signal peptide) (N); FLAG (N); Rho (first 20 aa of bovine rhodopsin) (N); expressed in transfected cells
T4 sequence (Q8NGI8 1-311): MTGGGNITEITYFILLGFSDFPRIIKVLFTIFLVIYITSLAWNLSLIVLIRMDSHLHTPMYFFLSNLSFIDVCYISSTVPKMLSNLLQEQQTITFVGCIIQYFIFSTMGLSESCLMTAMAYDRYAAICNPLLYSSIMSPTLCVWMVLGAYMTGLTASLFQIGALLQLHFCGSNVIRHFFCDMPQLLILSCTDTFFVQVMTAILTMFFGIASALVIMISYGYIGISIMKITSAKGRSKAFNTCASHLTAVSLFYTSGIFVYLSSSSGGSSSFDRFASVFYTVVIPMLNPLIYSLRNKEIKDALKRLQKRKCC

OR8D1 = target: T5, OR8D1 (Homo sapiens, UniProt Q8WZ84); assay: OR8D1 cell-based cAMP HTRF assay; conditions: dose-response, 100% = full agonist; for Emax: read-out: OR8D1 % Efficacy
T5 construct: Lucy (cleavable signal peptide) (N); FLAG (N); Rho (first 20 aa of bovine rhodopsin) (N); expressed in transfected cells
T5 sequence (Q8WZ84 1-308): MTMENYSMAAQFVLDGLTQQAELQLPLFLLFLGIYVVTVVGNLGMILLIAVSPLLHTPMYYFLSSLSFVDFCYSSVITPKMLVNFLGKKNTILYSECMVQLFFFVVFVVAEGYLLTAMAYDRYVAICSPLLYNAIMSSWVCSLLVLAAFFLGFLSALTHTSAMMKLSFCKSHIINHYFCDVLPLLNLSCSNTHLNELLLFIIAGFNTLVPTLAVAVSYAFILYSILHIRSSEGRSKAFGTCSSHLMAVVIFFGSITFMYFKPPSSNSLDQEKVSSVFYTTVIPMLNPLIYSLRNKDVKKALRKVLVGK

OR1C1 = target: T6, OR1C1 (Homo sapiens, UniProt Q15619); assay: OR1C1 cell-based cAMP HTRF assay; conditions: dose-response; 100% = full agonist; read-out: OR1C1 % Efficacy
T6 construct: Lucy (cleavable signal peptide) (N); FLAG (N); Rho (first 20 aa of bovine rhodopsin) (N); expressed in transfected cells
T6 sequence (Q15619 1-314): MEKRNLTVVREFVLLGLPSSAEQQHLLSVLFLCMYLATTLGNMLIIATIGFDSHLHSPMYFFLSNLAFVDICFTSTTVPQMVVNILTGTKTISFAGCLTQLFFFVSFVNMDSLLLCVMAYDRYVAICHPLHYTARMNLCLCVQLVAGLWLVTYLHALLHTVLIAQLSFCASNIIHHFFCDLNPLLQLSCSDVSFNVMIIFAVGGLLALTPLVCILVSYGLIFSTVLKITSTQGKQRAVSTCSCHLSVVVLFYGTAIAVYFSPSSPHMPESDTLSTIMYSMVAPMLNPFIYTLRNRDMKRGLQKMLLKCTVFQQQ

OR7A17 = target: T7, OR7A17 (Homo sapiens, UniProt O14581); assay: OR7A17 cell-based cAMP HTRF assay; conditions: FIG. 1
T7 construct: Lucy (cleavable signal peptide) (N); FLAG (N); Rho (first 20 aa of bovine rhodopsin) (N); expressed in transfected cells
T7 sequence (O14581 1-309): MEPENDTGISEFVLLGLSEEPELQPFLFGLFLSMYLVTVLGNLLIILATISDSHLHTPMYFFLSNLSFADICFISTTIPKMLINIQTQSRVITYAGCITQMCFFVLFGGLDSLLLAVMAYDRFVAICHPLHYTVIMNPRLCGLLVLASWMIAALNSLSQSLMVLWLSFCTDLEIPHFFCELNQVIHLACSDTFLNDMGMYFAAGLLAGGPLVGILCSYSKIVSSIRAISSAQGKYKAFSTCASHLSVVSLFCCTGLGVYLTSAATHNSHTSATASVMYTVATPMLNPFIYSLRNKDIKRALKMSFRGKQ

OR5A1 = target: T8, OR5A1 (Homo sapiens, UniProt Q8NGJ0); assay: OR5A1 cell-based cAMP HTRF assay
T8 construct: Lucy (cleavable signal peptide) (N); FLAG (N); Rho (first 20 aa of bovine rhodopsin) (N); expressed in transfected cells
T8 sequence (Q8NGJ0 1-315): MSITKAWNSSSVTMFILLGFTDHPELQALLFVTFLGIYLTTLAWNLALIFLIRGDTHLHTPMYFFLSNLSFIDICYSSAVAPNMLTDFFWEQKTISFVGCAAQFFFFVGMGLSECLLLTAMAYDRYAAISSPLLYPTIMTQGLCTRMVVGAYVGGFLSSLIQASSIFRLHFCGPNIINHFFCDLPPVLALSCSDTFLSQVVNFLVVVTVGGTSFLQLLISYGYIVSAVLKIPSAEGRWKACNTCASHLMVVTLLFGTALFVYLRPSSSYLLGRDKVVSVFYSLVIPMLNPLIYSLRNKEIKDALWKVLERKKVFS

[1] = dose-response, 100% = full agonist

`O=C1CCCCCCCC=CCCCCCCO1` [Ambrettolide, 1-oxacycloheptadec-10-en-2-one] was tested, and the Emax (OR1N2; [1]) was 100%.
`Cc1ccc2c(c1)CC(C)(CO)C2` (stereo not drawn) [Lilyflore, (2,5-dimethyl-1,3-dihydroinden-2-yl)methanol] was tested, and the Emax (OR10J5; [1]) was 58%.
For “methyl 2-[(1~{S},2~{S})-3-oxo-2-pentylcyclopentyl]acetate; methyl 2-[(1~{R},2~{S})-3-oxo-2-pentylcy clopentyl]acetate [Jasmodione]”, the “OR5B12 % Efficacy” value (OR5B12) was 98%.
Work on `CC(=O)c1c(C)c([N+](=O)[O-])c(C(C)(C)C)c([N+](=O)[O-])c1C` [Musk ketone, 1-(4-~{tert}-butyl-2,6-dimethyl-3,5-dinitrophenyl)ethanone] yielded an Emax (OR5AN1; [1]) of 100%.
In the case of `CC1=C(O)C(=O)OC1C` (stereo not drawn) [Sotolone, 4-hydroxy-2,3-dimethyl-2~{H}-furan-5-one], the “OR8D1 % Efficacy” value (OR8D1) is reported as 100%.
`O=C1CCCCCCCC=CCCCCCCC1` [Civetone, cycloheptadec-9-en-1-one] showed an Emax (OR1N2) of 94%.
`C=CC(C)(O)CCCC(C)C` (stereo not drawn) [Dihydrolinalool, 3,7-dimethyloct-1-en-3-ol] showed an Emax (OR1C1) of 95%.
In the case of `C=CC(C)(O)CCC=C(C)CC` (stereo not drawn) [Ethyl Linalool, 3,7-dimethylnona-1,6-dien-3-ol], the Emax (OR1C1) is reported as 99%.
`C[C@@H]1CCCCCCCCCCCCC(=O)C1` [Muscone, (R)-3-methylcyclopentadecanone] was tested, and the Emax (OR5AN1; [1]) was 75%.
In the case of `CC(=O)C=CC1=C(C)CCCC1(C)C` [Beta-ionone, 4-(2,6,6-trimethylcyclohexen-1-yl)but-3-en-2-one], the “activation of OR7A17 (blonde woody tonality)” value (OR7A17) is reported as “activation”, the “activation of OR5A1 (violet tonality)” value (OR5A1; FIG. 1) is reported as “activation” and the Emax (OR5A1; dose-response, 100% = full agonist, read-out: OR5A1 % Efficacy) is reported as 100%.
In the case of `CCCC1CC(=O)C=C(C)C1` (stereo not drawn) [Celery ketone, 3-methyl-5-propylcyclohex-2-en-1-one], the Emax (OR8D1) is reported as 76%.
With “3-methylcyclopentadec-4-en-1-one; 3-methylcyclopentadec-5-en-1-one [Muscenone delta]” the “OR5AN1 % Efficacy” value (OR5AN1; [1]) was 86%.
`Cc1c([N+](=O)[O-])c(C)c([N+](=O)[O-])c(C(C)(C)C)c1[N+](=O)[O-]` [Musk xylol, 1-~{tert}-butyl-3,5-dimethyl-2,4,6-trinitrobenzene] was tested, and the “OR5AN1 % Efficacy” value (OR5AN1) was 97%.
For `CCC=C1OC(=O)c2ccccc21` [Propylidene phthalide, 3-propylidene-2-benzofuran-1-one], the Emax (OR8D1) was 80%.
`CCC(C)(O)CCCC(C)C` (stereo not drawn) [Tetralinol, 3,7-dimethyloctan-3-ol] showed an Emax (OR1C1) of 79%.
`CCCCC[C@@H]1C(=O)CC[C@@H]1CC(=O)OC` [Hedione, methyl 2-[(1~{R},2~{S})-3-oxo-2-pentylcyclopentyl]acetate] was tested, and the “OR5B12 % Efficacy” value (OR5B12) was 86%.
`CC1=C(O)C(=O)CC1` [Cyclotone, 2-hydroxy-3-methylcyclopent-2-en-1-one] gave an Emax (OR8D1) of 97%.
“methyl 2-[[3-(4-hydroxy-4-methylpentyl)cyclohex-3-en-1-ylidene]methylamino]benzoate; methyl 2-[[4-(4-hydroxy-4-methylpentyl)cyclohex-3 -en-1-ylidene]methylamino]benzoate [Lyronol 50 dipg]” was tested, and the “OR10J5 % Efficacy” value (OR10J5; [1]) was 100%.
Molecule `C=CC(C)(O)CCC=C(C)C` (stereo not drawn) [Linalool, 3,7-dimethylocta-1,6-dien-3-ol] has an Emax (OR1C1) of 100%.
For `O=C1CCC=CCCCCCCCCCC1` [Exaltenone, cyclopentadec-4-en-1-one], the Emax (OR5AN1; [1]) was 86%.
`CC(C)(O)CCCC1=CCC(C=O)CC1` (stereo not drawn) [Lyral, 3-(4-hydroxy-4-methylpentyl)cyclohex-3-ene-1-carbaldehyde; 4-(4-hydroxy-4-methylpentyl)cyclohex-3-ene-1-carbaldehyde] was tested, and the Emax (OR10J5) was 100%.
With `CC(C)CC1CC(C)(O)CCO1` (stereo not drawn) [Florol, 4-methyl-2-(2-methylpropyl)oxan-4-ol] the Emax (OR10J5; [1]) was 40%.
`O=C1CCCCCCCCCCCC(=O)OCCO1` [Astrotone, 1,4-dioxacycloheptadecane-5,17-dione] showed an Emax (OR1N2; [1]) of 59%.
For `CCC1OC(=O)C(O)=C1C` (stereo not drawn) [Maple Furanone, 2-ethyl-4-hydroxy-3-methyl-2~{H}-furan-5-one], the “OR8D1 % Efficacy” value (OR8D1) was 100%.
`CC(=CCCC=O)CCCC(C)(C)O` [Mahonial, 9-hydroxy-5,9-dimethyldec-4-enal] gave an Emax (OR10J5; [1]) of 96%.
